Measurements: patent publication US20260191807A1, “COMPOSITIONS AND METHODS FOR TREATMENT OF PRADER-WILLI SYNDROME” (ERX Pharmaceuticals Inc., priority 2022, published 2026)
Like-named read-outs stand apart in the source and are kept apart here.

How the values were obtained:
C57BL/6 DIO mice [1] = assay: Body weights of C57BL/6 DIO mice during daily treatment; assay type: in vivo; conditions: Celastrol 0.2 mg/kg IP daily; for Body weights (expressed as a percentage of day-1 weight) / Body weights (in grams): Belaronib 0.3 mg/kg SC, mean
C57BL/6 DIO mice [2] = assay: Daily food intake of C57BL/6 DIO mice; assay type: in vivo; conditions: for Food intake (food weights in g/day): Belaronib 0.3 mg/kg SC, Celastrol 0.2 mg/kg IP daily, mean
Method: (§1) C57BL/6 mice were treated with test compound (Celastrol) or controls as shown in the table below from Day 1 to Day 15. […] One mouse was excluded from the study because it appeared resistant to nestlet shredding prior to treatment.
(§2) Male C57BL/6 DIO mice were obtained from Jackson Labs (Bar Harbor, ME). The mice arrived at ages 17 weeks and mice were housed 3 per cage on arrival. Prior to dosing in the study, the mice were singly housed.
(§3) All treatment volumes were 10 mL/kg. Utilizing the art-recognized nestlet shredding mouse model, […]. Celastrol and the vehicle control were administered intraperitoneally using a 30G needle. Beloranib was administered subcutaneously using a 30G needle. All treatments were administered daily in the afternoon at 17:00 h, 1 hour before dark cycle from Day 1 to end of dosing.
(§4) Celastrol was dissolved in a pharmaceutically-acceptable excipient, e.g., 50% Solutol/50% DMAC, and this stock solution aliquoted and stored at −80° C. until treatment day. On the day of treatment, an aliquot of the stock solution was thawed and diluted […] with saline to obtain the desired dosing solution strength in 5% Solutol/5% dimethylacetamide/90% saline. The vehicle control was 5% Solutol/5% dimethylacetamide/90% saline. Beloranib was dissolved in 100% DMSO, and this stock solution was aliquoted and stored at −80° C. until treatment day. On the day of treatment, an aliquot of the stock solution was thawed and diluted 1:10 with deionized (DI) water to obtain the desired dosing solution strength in 10% DMSO.
Daily food intake was calculated based on remaining food weight compared to food weight on the previous day using an Ohaus model CS 200 balance.

C57BL/6 DIO mice [3] = assay: Nestlet shredding test in C57BL/6 DIO mice; assay type: in vivo; conditions: Belaronib 0.3 mg/kg SC, Celastrol 0.2 mg/kg IP daily, mean
Method: as §1, §2, §3, §4
The nestlet shredding test is an art-recognized animal model for human repetitive, anxiety, and/or compulsive behaviors. In the nestlet shredding test, a nestlet comprised of pulped fiber, e.g., cotton fiber, is preweighed and placed on top of cage bedding and the amount of the nestlet remaining intact after a test session of pre-determined time is evaluated.
Nestlet shredding was determined on day 1, day 6, day 11 and day 15 by placing a fresh nestlet prior to the dark cycle and measuring the weight of the remaining nestlet at 12 and 24 hours on an Ohaus model CS 200 balance. Percent shredding was calculated based on the initial nestlet weight.

Participants with PWS = conditions: cited from earlier work; for weight change, mean difference: p<0.0001

For `CO[C@@H]1[C@H](OC(=O)/C=C/c2ccc(OCCN(C)C)cc2)CC[C@]2(CO2)[C@H]1[C@@]1(C)O[C@@H]1CC=C(C)C` [Belaronib, Beloranib, reference compound], the “Body weights (expressed as a percentage of day-1 weight)” value (C57BL/6 DIO mice [1]; Day 1) was 100.0%, the “Body weights (in grams)” value (C57BL/6 DIO mice [1]; Day 1) was 46.4 grams and the “Body weights (expressed as a percentage of day-1 weight)” value (C57BL/6 DIO mice [1]; Day 2) was 98.0%. The “Body weights (in grams)” value (C57BL/6 DIO mice [1]; Day 2) was 45.5 grams, the “Body weights (expressed as a percentage of day-1 weight)” value (C57BL/6 DIO mice [1]; Day 3) was 96.1% and the “Body weights (in grams)” value (C57BL/6 DIO mice [1]; Day 3) was 44.6 grams. The “Body weights (expressed as a percentage of day-1 weight)” value (C57BL/6 DIO mice [1]; Day 4) was 94.0%, the “Body weights (in grams)” value (C57BL/6 DIO mice [1]; Day 4) was 43.6 grams and the “Body weights (expressed as a percentage of day-1 weight)” value (C57BL/6 DIO mice [1]; Day 5) was 91.0%. For the same compound, the “Body weights (in grams)” value (C57BL/6 DIO mice [1]; Day 5) was 42.2 grams, the “Body weights (expressed as a percentage of day-1 weight)” value (C57BL/6 DIO mice [1]; Day 6) was 87.7% and the “Body weights (in grams)” value (C57BL/6 DIO mice [1]; Day 6) was 40.7 grams. For the same compound, the “Body weights (expressed as a percentage of day-1 weight)” value (C57BL/6 DIO mice [1]; Day 7) was 85.2%, the “Body weights (in grams)” value (C57BL/6 DIO mice [1]; Day 7) was 39.5 grams and the “Body weights (expressed as a percentage of day-1 weight)” value (C57BL/6 DIO mice [1]; Day 8) was 83.1%. For the same compound, the “Body weights (in grams)” value (C57BL/6 DIO mice [1]; Day 8) was 38.5 grams, the “Body weights (expressed as a percentage of day-1 weight)” value (C57BL/6 DIO mice [1]; Day 9) was 80.6% and the “Body weights (in grams)” value (C57BL/6 DIO mice [1]; Day 9) was 37.4 grams. For the same compound, the “Body weights (expressed as a percentage of day-1 weight)” value (C57BL/6 DIO mice [1]; Day 10) was 79.2%, the “Body weights (in grams)” value (C57BL/6 DIO mice [1]; Day 10) was 36.7 grams and the “Body weights (expressed as a percentage of day-1 weight)” value (C57BL/6 DIO mice [1]; Day 11) was 77.9%. The “Body weights (in grams)” value (C57BL/6 DIO mice [1]; Day 11) was 36.1 grams, the “Body weights (expressed as a percentage of day-1 weight)” value (C57BL/6 DIO mice [1]; Day 12) was 77.1% and the “Body weights (in grams)” value (C57BL/6 DIO mice [1]; Day 12) was 35.7 grams. For the same compound, the “Body weights (expressed as a percentage of day-1 weight)” value (C57BL/6 DIO mice [1]; Day 13) was 76.2%, the “Body weights (in grams)” value (C57BL/6 DIO mice [1]; Day 13) was 35.3 grams and the “Body weights (expressed as a percentage of day-1 weight)” value (C57BL/6 DIO mice [1]; Day 14) was 75.2%. The “Body weights (in grams)” value (C57BL/6 DIO mice [1]; Day 14) was 34.8 grams, the “Body weights (expressed as a percentage of day-1 weight)” value (C57BL/6 DIO mice [1]; Day 15) was 74.4% and the “Body weights (in grams)” value (C57BL/6 DIO mice [1]; Day 15) was 34.5 grams. For the same compound, the “body weight lost (percentage of day 1 body weight)” value (C57BL/6 DIO mice [1]; at day 15, Beloranib 0.3 mg/kg SC, vehicle-treated mice lost 15.5%) was 25.6%, the “cumulative food intake, average total for the study” value (C57BL/6 DIO mice [2]; 15-day study, Beloranib 0.3 mg/kg SC, celastrol 0.2 mg/kg IP daily, vehicle 32.6 g) was 28.1 g/mouse and the “effect on food intake (in words)” value (C57BL/6 DIO mice [2]; Celastrol compared with positive control Beloranib) was “rebounded”. The “Food intake (food weights in g/day)” value (C57BL/6 DIO mice [2]; Day 1) was 3.1 g/day, the “Food intake (food weights in g/day)” value (C57BL/6 DIO mice [2]; Day 2) was 1.5 g/day and the “Food intake (food weights in g/day)” value (C57BL/6 DIO mice [2]; Day 3) was 2.3 g/day. The “Food intake (food weights in g/day)” value (C57BL/6 DIO mice [2]; Day 4) was 1.9 g/day, the “Food intake (food weights in g/day)” value (C57BL/6 DIO mice [2]; Day 5) was 1.4 g/day and the “Food intake (food weights in g/day)” value (C57BL/6 DIO mice [2]; Day 6) was 1.2 g/day. The “Food intake (food weights in g/day)” value (C57BL/6 DIO mice [2]; Day 7) was 1.1 g/day, the “Food intake (food weights in g/day)” value (C57BL/6 DIO mice [2]; Day 8) was 1.5 g/day and the “Food intake (food weights in g/day)” value (C57BL/6 DIO mice [2]; Day 9) was 1.1 g/day. For the same compound, the “Food intake (food weights in g/day)” value (C57BL/6 DIO mice [2]; Day 10) was 1.9 g/day, the “Food intake (food weights in g/day)” value (C57BL/6 DIO mice [2]; Day 11) was 2.2 g/day and the “Food intake (food weights in g/day)” value (C57BL/6 DIO mice [2]; Day 12) was 2.6 g/day. The “Food intake (food weights in g/day)” value (C57BL/6 DIO mice [2]; Day 13) was 2.2 g/day, the “Food intake (food weights in g/day)” value (C57BL/6 DIO mice [2]; Day 14) was 2.2 g/day and the “Food intake (food weights in g/day)” value (C57BL/6 DIO mice [2]; Day 15) was 2.1 g/day. The “food intake after rebound, similar to vehicle” value (C57BL/6 DIO mice [2]; day 10-11, 0.3 mg/kg SC daily) was 2.2 g/day/mouse, the “food intake, nadir” value (C57BL/6 DIO mice [2]; reduction initiated on day 2-3, 0.3 mg/kg SC daily) was 1.1 g/day/mouse and the “Nestlet Shredding (percent of nestlet shredded)” value (C57BL/6 DIO mice [3]; Day 1, 12 hour) was 95.5%. The “Nestlet Shredding (percent of nestlet shredded)” value (C57BL/6 DIO mice [3]; Day 6, 12 hour) was 11.9%, the “Nestlet Shredding (percent of nestlet shredded)” value (C57BL/6 DIO mice [3]; Day 6, 24 hour) was 15.7% and the “Nestlet Shredding (percent of nestlet shredded)” value (C57BL/6 DIO mice [3]; Day 11, 12 hour) was 3.8%. For the same compound, the “Nestlet Shredding (percent of nestlet shredded)” value (C57BL/6 DIO mice [3]; Day 11, 24 hour) was 5.2%, the “Nestlet Shredding (percent of nestlet shredded)” value (C57BL/6 DIO mice [3]; Day 15, 12 hour) was 27.6% and the “Nestlet Shredding (percent of nestlet shredded)” value (C57BL/6 DIO mice [3]; Day 15, 24 hour) was 32.9%. For the same compound, the “weight change, mean difference” value (Participants with PWS; 1.8 mg beloranib injection biweekly for 26 weeks, 95% CI −10.8 to −5.6) was −8.2%, the “most frequent adverse event” value (Participants with PWS; 1.8 mg or 2.4 mg injection biweekly) was “Injection site bruising” and the “weight change, mean difference” value (Participants with PWS; 2.4 mg beloranib injection biweekly for 26 weeks, 95% CI −12.1 to −6.8) was −9.5%. The “venous thrombotic events in beloranib-treated participants” value (Participants with PWS; imbalance compared to placebo, dosing stopped early) was “two fatal events of pulmonary embolism and two events of deep vein thrombosis”.
